Activity calls are given as the source filed them.
What was measured:
Fatty acid synthase [1] = target: T1, Fatty acid synthase (Homo sapiens, UniProt P49327); assay: inhibition of human FAS-TE enzyme activity – biochemical, endpoint fluorescence intensity, uHTS hits, dose response (AID 624327); format: functional;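 further: fluorescence from hydrolysis of an O-methyl fluorescein acyl ester substrate by the enzyme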
Fatty acid synthase [2] = target: T1, Fatty acid synthase; assay: inhibition of human FAS-TE enzyme activity – biochemical, kinetic fluorescence intensity, dose response (AID 624326); format: functional;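 further: rate of fluorescence rise from hydrolysis of a fluorogenic O-methyl fluorescein ester substrate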
[3] = target: T2, Corticotropin-releasing factor receptor 2/Corticotropin-releasing factor-binding protein (Homo sapiens, UniProt P24387+Q13324); assay: activators of CRF receptor 2 with binding protein – uHTS hits, confirmation (AID 602473); format: functional; settings: read-out: EC50_Mean
T2 sequence (Q13324 whole entry): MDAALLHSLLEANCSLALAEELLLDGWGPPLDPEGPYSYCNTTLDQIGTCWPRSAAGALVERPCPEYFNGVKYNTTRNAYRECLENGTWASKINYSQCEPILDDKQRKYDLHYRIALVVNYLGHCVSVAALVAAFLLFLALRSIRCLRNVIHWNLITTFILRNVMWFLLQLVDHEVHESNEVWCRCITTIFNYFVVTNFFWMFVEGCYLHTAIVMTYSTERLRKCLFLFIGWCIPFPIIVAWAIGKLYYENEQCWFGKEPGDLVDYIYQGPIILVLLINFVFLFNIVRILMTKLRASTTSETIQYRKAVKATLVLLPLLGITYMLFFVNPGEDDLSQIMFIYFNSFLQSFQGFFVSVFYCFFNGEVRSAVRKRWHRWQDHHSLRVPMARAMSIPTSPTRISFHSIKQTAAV
T2 sequence (P24387 whole entry): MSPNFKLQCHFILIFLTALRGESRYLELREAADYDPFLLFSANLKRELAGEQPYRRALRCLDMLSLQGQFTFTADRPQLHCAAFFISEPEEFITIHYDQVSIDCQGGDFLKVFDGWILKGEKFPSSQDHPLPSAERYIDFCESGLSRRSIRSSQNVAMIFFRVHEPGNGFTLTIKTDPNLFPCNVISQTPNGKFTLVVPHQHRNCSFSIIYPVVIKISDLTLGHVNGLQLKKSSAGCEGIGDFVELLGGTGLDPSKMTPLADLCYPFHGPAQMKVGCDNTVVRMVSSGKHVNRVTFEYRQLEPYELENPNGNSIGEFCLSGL

[4] = target: T3, Polyadenylate-binding protein 1 (Homo sapiens, UniProt P11940); assay: MLLE binding blockers, Cy5 peptide tracer – biochemical, fluorescence polarization, Cy5-PAM2 peptide, secondary, miRNA deadenylation inhibitor project, dose response (AID 602260); format: functional; settings: read-out: IC50_Mean
T3 sequence (P11940 whole entry): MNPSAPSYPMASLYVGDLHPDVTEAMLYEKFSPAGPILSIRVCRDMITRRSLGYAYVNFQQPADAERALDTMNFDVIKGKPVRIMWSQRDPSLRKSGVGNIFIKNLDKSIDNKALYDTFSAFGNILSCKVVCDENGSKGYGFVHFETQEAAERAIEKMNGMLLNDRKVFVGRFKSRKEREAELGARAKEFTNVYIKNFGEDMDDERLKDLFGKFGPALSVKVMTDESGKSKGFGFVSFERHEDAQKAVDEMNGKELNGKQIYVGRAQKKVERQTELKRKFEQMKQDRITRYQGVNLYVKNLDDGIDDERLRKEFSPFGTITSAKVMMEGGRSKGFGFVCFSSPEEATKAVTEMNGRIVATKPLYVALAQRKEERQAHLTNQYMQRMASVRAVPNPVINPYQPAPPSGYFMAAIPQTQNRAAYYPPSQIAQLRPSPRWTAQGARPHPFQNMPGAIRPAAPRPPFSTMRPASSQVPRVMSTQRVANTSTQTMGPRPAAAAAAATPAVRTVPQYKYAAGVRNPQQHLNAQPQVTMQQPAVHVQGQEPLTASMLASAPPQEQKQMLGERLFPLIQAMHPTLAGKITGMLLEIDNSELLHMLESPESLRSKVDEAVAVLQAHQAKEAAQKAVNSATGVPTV

Cytochrome P450 1A2 = target: T4, Cytochrome P450 1A2 (Homo sapiens, UniProt P05177);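 further: PubChem cytochrome P450 panel assay, CYP1A2 panel member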
T4 sequence (P05177 whole entry): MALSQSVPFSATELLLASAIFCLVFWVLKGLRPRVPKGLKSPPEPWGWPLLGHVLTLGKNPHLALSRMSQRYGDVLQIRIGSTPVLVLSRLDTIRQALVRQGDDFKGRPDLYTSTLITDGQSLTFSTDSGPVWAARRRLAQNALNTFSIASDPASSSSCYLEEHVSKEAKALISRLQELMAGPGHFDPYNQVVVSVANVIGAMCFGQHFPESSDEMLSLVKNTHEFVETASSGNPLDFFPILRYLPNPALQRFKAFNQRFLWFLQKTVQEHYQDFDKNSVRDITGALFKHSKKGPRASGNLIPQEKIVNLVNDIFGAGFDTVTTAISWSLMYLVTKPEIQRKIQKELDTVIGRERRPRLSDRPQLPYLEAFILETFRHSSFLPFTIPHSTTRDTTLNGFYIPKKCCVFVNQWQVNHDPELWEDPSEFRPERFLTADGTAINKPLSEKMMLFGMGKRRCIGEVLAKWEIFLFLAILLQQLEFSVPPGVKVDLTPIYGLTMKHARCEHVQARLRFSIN

[5] = target: T3, Polyadenylate-binding protein 1; assay: MLLE domain peptide-binding blockers, IC50 – biochemical, fluorescence polarization, FITC-PAM2 peptide, dose response (AID 602259); format: functional; settings: read-out: IC50_Mean
[6] = NIH-3T3 fibroblast cytotoxicity, dose response, cytotoxicity control, cell-based, fluorescence, Alamar Blue, secondary assay (AID 2327); format: functional;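 further: NIH-3T3 mouse fibroblasts cultured with fluconazole at 8 µg/mL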
[7] = fluconazole-exposed Candida albicans growth modulators – fluorescence, retest, confirmation (AID 2467); format: functional, cell-based
[8] = target: T5, Replicative DNA helicase DnaB (Mycobacterium tuberculosis, UniProt P9WMR3); assay: DnaB intein splicing inhibitors, dose response, biochemical, cell-free fluorescence (AID 449749); format: functional
T5 sequence (P9WMR3 whole entry): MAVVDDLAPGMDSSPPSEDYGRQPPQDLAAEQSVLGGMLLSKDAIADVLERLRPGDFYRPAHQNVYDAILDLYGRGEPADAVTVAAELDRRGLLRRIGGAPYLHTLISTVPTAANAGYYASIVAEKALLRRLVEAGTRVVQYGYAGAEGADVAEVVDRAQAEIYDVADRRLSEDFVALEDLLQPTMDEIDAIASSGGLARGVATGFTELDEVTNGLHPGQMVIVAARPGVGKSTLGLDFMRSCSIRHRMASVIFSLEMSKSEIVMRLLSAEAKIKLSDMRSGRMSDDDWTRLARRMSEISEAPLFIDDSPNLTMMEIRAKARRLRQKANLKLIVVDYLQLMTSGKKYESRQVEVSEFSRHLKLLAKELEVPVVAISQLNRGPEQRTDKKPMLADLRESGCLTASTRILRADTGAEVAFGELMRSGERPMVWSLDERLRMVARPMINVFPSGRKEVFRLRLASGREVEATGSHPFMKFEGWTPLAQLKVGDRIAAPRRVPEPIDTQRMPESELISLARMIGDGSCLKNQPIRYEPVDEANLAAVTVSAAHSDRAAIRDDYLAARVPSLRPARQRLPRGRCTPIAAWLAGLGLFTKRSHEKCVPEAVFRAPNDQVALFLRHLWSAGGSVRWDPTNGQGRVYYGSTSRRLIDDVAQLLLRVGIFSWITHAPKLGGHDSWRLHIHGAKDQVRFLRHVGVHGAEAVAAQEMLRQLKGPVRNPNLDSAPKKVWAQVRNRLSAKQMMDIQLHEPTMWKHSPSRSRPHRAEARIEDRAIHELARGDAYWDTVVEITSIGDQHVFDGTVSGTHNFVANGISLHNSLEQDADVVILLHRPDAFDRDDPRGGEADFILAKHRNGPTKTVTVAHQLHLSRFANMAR

Protein RecA = target: T6, Protein RecA (Mycobacterium tuberculosis, UniProt P9WHJ3); assay: Fluorescence Cell-Free Homogeneous Dose Retest to Identify Inhibitors of RecA-Intein Splicing Activity. [Related pubchem assays (depositor defined):AID2097, AID2223, AID489010, AID492950]; format: functional
T6 sequence (P9WHJ3 whole entry): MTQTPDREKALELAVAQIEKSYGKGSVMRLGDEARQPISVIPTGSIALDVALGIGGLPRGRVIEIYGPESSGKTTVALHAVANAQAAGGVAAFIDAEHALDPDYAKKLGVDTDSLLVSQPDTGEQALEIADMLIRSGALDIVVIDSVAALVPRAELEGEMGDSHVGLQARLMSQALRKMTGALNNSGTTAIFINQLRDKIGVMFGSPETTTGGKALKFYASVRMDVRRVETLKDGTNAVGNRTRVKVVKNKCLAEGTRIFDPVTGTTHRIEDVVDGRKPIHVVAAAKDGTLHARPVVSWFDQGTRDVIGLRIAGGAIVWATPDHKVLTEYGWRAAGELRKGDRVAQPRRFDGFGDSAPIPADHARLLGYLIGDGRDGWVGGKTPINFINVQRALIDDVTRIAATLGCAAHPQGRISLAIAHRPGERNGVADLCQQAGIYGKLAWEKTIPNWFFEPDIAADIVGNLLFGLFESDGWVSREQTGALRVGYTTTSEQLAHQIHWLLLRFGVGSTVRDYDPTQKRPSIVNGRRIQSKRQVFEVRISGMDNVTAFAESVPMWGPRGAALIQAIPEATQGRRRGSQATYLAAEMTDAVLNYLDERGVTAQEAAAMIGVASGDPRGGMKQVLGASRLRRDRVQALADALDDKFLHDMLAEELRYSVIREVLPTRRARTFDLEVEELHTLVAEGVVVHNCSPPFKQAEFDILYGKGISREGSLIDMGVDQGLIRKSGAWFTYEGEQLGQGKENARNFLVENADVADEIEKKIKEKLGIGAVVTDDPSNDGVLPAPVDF

[9] = reduction of Shn3 3'UTR-driven luciferase in osteoblasts – cell-based, Clone20 osteoblasts, firefly luciferase, cherry-picked, dose response (AID 624132); format: functional;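 further: firefly luciferase luminescence from reporter carrying the Shn3 3'UTR in osteoblasts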
[10] = target: FAD-linked sulfhydryl oxidase ALR (Homo sapiens, UniProt P55789); assay: ALR-catalysed DTT oxidation blockers – biochemical, H2O2 detection, luminescence, cherry-pick, dose response (AID 493248)
Chain of FAD-linked sulfhydryl oxidase ALR (P55789 whole entry): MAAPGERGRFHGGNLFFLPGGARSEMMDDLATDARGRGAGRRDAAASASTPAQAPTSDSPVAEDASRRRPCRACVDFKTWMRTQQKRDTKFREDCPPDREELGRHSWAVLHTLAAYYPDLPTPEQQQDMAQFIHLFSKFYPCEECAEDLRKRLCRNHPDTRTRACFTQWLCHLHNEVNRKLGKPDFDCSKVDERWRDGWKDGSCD

INS1 = assay: INS-1E survival protection against cytokine death – cell-based, luminescence, retest, dose response (AID 449756); format: functional; settings: Rattus norvegicus;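 further: cell death triggered by IL-1 beta plus TNF-alpha plus IFN-gamma mixture; protective hits raise ATP signal compared with cytokine alone wells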
Genome polyprotein = Genome polyprotein (dengue virus type 2, UniProt P29990); assay: flavivirus cap methylation enzyme inhibition – biochemical, confirmation dose response, primary screen (AID 588689); format: functional
Chain of Genome polyprotein (P29990 2492-3391 limits assumed): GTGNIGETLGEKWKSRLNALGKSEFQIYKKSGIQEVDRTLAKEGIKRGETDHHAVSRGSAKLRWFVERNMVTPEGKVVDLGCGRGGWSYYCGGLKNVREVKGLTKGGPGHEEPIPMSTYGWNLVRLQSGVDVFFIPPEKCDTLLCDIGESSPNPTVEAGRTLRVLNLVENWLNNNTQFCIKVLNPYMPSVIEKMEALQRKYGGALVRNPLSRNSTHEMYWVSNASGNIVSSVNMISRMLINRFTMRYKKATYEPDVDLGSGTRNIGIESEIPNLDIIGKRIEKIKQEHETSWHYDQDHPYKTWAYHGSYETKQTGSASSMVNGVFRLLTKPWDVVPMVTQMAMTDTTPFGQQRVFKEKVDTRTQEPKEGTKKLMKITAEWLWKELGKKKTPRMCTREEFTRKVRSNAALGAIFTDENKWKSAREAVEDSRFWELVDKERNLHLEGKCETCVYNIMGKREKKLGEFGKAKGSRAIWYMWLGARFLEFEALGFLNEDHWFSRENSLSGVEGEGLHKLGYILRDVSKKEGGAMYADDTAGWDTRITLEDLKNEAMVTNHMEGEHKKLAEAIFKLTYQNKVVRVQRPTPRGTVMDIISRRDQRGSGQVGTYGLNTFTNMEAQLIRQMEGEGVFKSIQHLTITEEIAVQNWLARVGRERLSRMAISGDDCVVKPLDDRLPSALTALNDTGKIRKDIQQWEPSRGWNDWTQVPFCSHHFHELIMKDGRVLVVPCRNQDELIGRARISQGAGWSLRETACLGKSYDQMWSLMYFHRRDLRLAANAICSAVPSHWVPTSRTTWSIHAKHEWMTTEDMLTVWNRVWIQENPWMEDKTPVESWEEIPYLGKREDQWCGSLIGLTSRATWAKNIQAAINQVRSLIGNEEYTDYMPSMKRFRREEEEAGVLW

[11] = Luminescence Cell-Based Dose Retest to Confirm Inhibitors of Cancer Stem Cells. [Related pubchem assays (depositor defined):AID2717, AID2721]; format: functional; settings: Homo sapiens
[12] = NIH3T3 cell viability loss – ATP luminescence, mouse fibroblasts, counter-screen, dose response (AID 2010); format: functional, cell-based;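 further: cells exposed to compound for about 90 hours before reading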
[13] = Trypanosoma cruzi growth suppression in host cells – NIH3T3 host cells, beta-gal luminescence, confirmation (AID 2044); format: functional, cell-based;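 further: intracellular parasites grown in NIH/3T3 mouse fibroblasts as host cells; luminescent beta-galactosidase reporter signal from transgenic T. cruzi replicating inside host cells; inhibitors lower the luminescence signal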
cells [14] = format: functional, cell-based
cells [15] = format: functional, cell-based; remark: listed apart in the source

T1 sequence (P49327 whole entry): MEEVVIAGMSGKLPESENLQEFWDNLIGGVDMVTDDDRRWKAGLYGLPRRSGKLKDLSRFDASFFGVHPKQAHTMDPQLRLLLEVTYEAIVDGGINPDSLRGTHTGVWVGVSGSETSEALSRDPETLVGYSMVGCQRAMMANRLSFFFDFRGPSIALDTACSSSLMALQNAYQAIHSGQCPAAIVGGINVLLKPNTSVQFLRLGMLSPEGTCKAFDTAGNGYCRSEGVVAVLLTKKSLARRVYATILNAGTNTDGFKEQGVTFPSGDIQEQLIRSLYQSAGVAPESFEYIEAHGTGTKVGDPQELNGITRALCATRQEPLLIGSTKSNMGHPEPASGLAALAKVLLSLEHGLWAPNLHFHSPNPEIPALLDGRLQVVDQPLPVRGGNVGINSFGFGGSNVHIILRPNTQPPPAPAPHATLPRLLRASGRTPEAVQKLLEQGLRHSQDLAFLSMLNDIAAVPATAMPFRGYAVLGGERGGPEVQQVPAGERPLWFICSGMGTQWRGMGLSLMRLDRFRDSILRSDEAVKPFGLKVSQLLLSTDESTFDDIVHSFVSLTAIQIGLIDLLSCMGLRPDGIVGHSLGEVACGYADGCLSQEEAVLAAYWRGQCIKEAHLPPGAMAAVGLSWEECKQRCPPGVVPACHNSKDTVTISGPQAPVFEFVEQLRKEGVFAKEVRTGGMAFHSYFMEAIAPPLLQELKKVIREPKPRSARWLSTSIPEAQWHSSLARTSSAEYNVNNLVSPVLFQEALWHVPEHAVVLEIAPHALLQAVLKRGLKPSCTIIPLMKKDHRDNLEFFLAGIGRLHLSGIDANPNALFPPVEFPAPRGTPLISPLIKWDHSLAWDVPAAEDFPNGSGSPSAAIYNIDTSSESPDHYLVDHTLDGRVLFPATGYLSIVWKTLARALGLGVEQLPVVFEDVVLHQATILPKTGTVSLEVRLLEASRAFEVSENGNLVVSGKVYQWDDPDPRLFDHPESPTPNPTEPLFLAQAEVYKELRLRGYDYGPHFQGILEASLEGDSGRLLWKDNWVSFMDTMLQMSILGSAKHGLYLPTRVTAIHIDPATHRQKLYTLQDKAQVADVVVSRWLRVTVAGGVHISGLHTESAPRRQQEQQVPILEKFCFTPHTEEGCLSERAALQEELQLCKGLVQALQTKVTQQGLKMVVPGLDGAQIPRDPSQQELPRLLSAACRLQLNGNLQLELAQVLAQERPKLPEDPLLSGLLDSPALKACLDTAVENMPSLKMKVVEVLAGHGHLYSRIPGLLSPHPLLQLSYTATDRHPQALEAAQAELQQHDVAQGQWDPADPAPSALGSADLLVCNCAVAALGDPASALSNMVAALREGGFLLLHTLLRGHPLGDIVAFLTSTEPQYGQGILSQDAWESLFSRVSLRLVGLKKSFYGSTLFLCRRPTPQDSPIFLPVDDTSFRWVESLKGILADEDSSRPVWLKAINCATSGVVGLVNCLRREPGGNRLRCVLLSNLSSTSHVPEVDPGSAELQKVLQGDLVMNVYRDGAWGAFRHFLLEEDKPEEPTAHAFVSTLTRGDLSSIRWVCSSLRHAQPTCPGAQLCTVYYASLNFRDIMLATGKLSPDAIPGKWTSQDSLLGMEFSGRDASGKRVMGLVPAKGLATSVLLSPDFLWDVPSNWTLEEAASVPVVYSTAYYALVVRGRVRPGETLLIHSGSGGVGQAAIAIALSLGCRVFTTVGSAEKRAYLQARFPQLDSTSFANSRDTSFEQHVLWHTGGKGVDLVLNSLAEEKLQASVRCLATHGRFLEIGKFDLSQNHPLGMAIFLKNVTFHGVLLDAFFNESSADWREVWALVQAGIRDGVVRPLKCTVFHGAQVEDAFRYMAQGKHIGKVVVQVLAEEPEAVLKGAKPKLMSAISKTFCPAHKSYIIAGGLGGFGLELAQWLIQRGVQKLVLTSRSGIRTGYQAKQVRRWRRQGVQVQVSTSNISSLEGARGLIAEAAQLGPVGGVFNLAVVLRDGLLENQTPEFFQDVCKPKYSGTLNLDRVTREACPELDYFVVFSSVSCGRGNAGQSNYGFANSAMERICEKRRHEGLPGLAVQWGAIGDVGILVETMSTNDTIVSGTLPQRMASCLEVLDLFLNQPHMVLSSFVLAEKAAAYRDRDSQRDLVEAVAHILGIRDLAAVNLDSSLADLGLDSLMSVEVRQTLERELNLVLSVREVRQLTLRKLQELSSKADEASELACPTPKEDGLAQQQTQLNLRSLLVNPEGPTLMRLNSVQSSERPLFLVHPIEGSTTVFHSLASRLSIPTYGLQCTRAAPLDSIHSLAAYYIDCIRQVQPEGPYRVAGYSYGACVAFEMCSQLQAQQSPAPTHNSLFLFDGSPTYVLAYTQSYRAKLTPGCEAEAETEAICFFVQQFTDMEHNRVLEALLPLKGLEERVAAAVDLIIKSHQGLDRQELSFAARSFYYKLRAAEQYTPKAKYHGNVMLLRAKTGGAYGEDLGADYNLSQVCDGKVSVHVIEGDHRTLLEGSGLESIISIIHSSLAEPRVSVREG

CN(C)S(=O)(=O)c1ccc2c(c1)C(=O)c1cc(S(=O)(=O)N(C)C)ccc1CC2
IC50 (Fatty acid synthase [1]): 0.176 µM (active)
IC50 (Fatty acid synthase [2]): 0.166 µM (active)

C=CCC1=C/C(=C\c2c(N)n3nc(CC(=O)N4CCCC4)sc3nc2=O)C=C(OC)C1=O
EC50 [3]: 10.6 µM (active)

Cc1ccc(-n2[nH]c(C)c(/C=N/c3ccc4[nH]c(O)nc4c3)c2=O)cc1C
IC50 [4]: 35.3 µM (inactive)
AC50 (Cytochrome P450 1A2): 12.6 µM (inconclusive)
IC50 [5]: 22 µM (inactive)

CS(=O)(=O)c1ccc2nc(NC3(C(F)(F)F)N=C4SCCN4C3=O)sc2c1 (centres undefined)
IC50 [4]: > 66 µM (inactive)
IC50 [5]: > 66 µM (inactive)

C=C(C)CSc1nc(O)cc(C)c1C#N
EC50 [6]: > 150 µM (inactive)
EC50 [7]: 1.86 µM (active)

O=C(NCCc1ccccc1)c1c(O)c2cccc3c2n(c1=O)CC3
EC50 [6]: > 150 µM (inactive)
EC50 [7]: > 38 µM (not active)

O=C1NC[C@@H](c2ccccc2)OC(=O)[C@H](Cc2ccc(F)cc2)CC/C=C/C[C@H]1CC(=O)N(CCO)Cc1ccccc1
EC50 [3]: > 53 µM (inactive)

COc1cc(/C=C2/C(=O)N(c3ccc(C)c(C)c3)N=C2C)cc([N+](=O)[O-])c1O
AC50 [8]: 11.3 µM (active)
EC50 (Protein RecA): 8.54 µM (active)

O=C1CSC(=S)N1N=Cc1c(F)cccc1Cl
EC50 [3]: > 53 µM (inactive)

CC1(Cc2ccc(OC(F)(F)F)cc2)C(=O)Nc2c(Cl)ccc(Cl)c21 (centres undefined)
AC50 [9]: 25.7 µM (active)

O=C(Cn1nnc(-c2cc(C(F)(F)F)cc(C(F)(F)F)c2)n1)NN=C(S)Nc1ccc(Cl)cc1
IC50 [4]: > 66 µM (inactive)
IC50 [5]: > 66 µM (inactive)

Cc1ccc(Sc2ncnc3onc(C)c23)cc1
AC50 [8]: 14.9 µM (active)
EC50 (Protein RecA): 6.8 µM (active)
AC50 [10]: 9.91 µM (active)

Cc1[nH]n(C(N)=S)c(=O)c1C(c1ccccc1)C(C#N)C#N (centres undefined)
AC50 [8]: 16.2 µM (active)
EC50 (Protein RecA): 12.9 µM (active)

O=C(c1ccc(Cl)c([N+](=O)[O-])c1)N1CCN(c2ccccc2)CC1
IC50 (Fatty acid synthase [2]): 11.9 µM (active)

COc1ccc(C(=O)NN/C(C)=C/C(=O)C(F)(F)C(F)(F)C(F)(F)F)cc1
EC50 [6]: 47.2 µM (active)
AC50 (INS1): 32.5 µM (active)
EC50 [7]: 0.384 µM (active)

CCN1CCN(c2c(Cl)cccc2NC(=O)c2ccc3c(c2)OCCO3)CC1
AC50 [8]: > 380 µM (inactive)
EC50 (Protein RecA): > 380 µM (inactive)

Cc1[nH]n(-c2ccccc2)c(=O)c1C(c1ccc(O)c([N+](=O)[O-])c1)c1c(C)[nH]n(-c2ccccc2)c1=O
AC50 [8]: 2.53 µM (active)
IC50 (Genome polyprotein): 28.7 µM (active)
EC50 (Protein RecA): 1.01 µM (active)

CSCCC(NC(=O)c1ccccc1)C(=O)N/N=C(\C)c1ccccc1 (centres undefined)
EC50 [3]: 7.06 µM (active)

O=C(O)CCN1C(=O)C(=C2CCCCCC2)SC1=S
IC50 [4]: > 66 µM (inactive)
AC50 [11]: 40.8 µM (active)
IC50 [5]: > 66 µM (inactive)

CC(NC(=O)OCc1ccccc1)C(=O)Oc1cc2oc(=O)cc(-c3ccccc3)c2cc1Cl (centres undefined)
EC50 [6]: > 150 µM (inactive)
EC50 [7]: 1.09 µM (active)

CCc1c(O)nc(SCC(=O)N2CCc3cc(OC)c(OC)cc3[C@@H]2C)nc1O
IC50 [4]: > 66 µM (inactive)
IC50 [5]: > 66 µM (inactive)

COc1ccc(C(O)c2nccc3cc(OC)c(OC)cc23)cc1OC (centres undefined)
AC50 [8]: 3.56 µM (active)
EC50 (Protein RecA): 10.7 µM (active)

CN(C)S(=O)(=O)c1cccc(NC(=S)N/N=C/c2cc(Br)ccc2O)c1
EC50 [6]: > 150 µM (inactive)
AC50 (INS1): 0.481 µM (active)
EC50 [12]: > 60 µM (not active)
EC50 [13]: 2.27 µM (active)
EC50 [7]: 2.83 µM (active)
EC50 (cells [14]): > 350 µM (not active)
EC50 (cells [15]): 7.76 µM (active)

CC1=NN(c2ccccc2)C(=O)C1C(=S)SC1CC(=O)NC1=O (centres undefined)
IC50 [4]: > 66 µM (inactive)
IC50 [5]: > 66 µM (inactive)

CCOC(=O)Cc1csc(NC(=O)CSc2nc(O)c3c(C)c(C(=O)O)sc3n2)n1
EC50 [6]: 104 µM (active)
EC50 [7]: 5.45 µM (active)

Reference: ChEMBL document CHEMBL1201862, “PubChem BioAssay data set” (2004)
